Measurements: US8748429B2, “CGRP receptor antagonists” (Bristol-Myers Squibb Company, priority 2011, dated 2014)

Molecular target: Human CGRP Receptor (Homo sapiens, UniProt O60894+Q16602)
Assay: Human CGRP Binding

Human CGRP Receptor, sequence (Q16602 23-461): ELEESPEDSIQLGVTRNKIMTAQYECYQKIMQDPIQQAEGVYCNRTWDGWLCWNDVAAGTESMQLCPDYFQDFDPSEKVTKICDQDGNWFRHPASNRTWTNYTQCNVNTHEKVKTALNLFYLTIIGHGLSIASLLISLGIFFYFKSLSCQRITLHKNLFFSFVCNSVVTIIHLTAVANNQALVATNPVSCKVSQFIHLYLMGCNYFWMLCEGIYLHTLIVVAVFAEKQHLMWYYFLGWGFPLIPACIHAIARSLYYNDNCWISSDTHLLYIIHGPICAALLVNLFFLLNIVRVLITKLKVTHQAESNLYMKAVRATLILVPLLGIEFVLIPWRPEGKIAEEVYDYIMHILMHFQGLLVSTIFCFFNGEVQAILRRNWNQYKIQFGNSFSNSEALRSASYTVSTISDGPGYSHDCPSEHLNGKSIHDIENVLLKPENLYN
Human CGRP Receptor, sequence (O60894 27-148): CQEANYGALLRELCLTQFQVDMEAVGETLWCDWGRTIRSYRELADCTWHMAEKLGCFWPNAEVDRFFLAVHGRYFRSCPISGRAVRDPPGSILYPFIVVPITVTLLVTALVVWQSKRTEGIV

SMILES | IC50
CC(C)(C)OC(=O)N[C@@H]1c2nccnc2C(CC(=O)N2CCC(n3c(=O)[nH]c4ncccc43)CC2)=CC[C@H]1c1cccc(F)c1F [Example 1, tert-butyl (5S,6S,Z)-6-(2,3-difluorophenyl)-9-(2-oxo-2-(4-(2-oxo-2,3-dihydro-1H-imidazo[4,5-b]pyridin-1-yl)piperidin-1-yl)ethyl)-6,7-dihydro-5H-cyclohepta[b]pyrazin-5-ylcarbamate] | 570 nM
CC(C)(C)OC(=O)N[C@@H]1c2nccnc2[C@H](OC(=O)N2CCC(n3c(=O)[nH]c4ncccc43)CC2)CC[C@H]1c1cccc(F)c1F [Example 3, (5R,8S,9S)-9-(tert-butoxycarbonylamino)-8-(2,3-difluorophenyl)-6,7,8,9-tetrahydro-5H-cyclohepta[b]pyrazin-5-yl 4-(2-oxo-2,3-dihydro-1H-imidazo[4,5-b]pyridin-1-yl)piperidine-1-carboxylate] | 1.1 nM
N[C@@H]1c2nccnc2C(CC(=O)N2CCC(n3c(=O)[nH]c4ncccc43)CC2)=CC[C@H]1c1cccc(F)c1F [Example 2, 1-(1-(2-((5S,6S,Z)-5-amino-6-(2,3-difluorophenyl)-6,7-dihydro-5H-cyclohepta[b]pyrazin-9-yl)acetyl)piperidin-4-yl)-1H-imidazo[4,5-b]pyridin-2(3H)-one] | 470 nM
N[C@@H]1c2nccnc2[C@H](OC(=O)N2CCC(n3c(=O)[nH]c4ncccc43)CC2)CC[C@H]1c1cccc(F)c1F [Example 4, (5R,8S,9S)-9-amino-8-(2,3-difluorophenyl)-6,7,8,9-tetrahydro-5H-cyclohepta[b]pyrazin-5-yl 4-(2-oxo-2,3-dihydro-1H-imidazo[4,5-b]pyridin-1-yl)piperidine-1-carboxylate] | 0.11 nM

Second part, the molecule after the results:

IC50 | SMILES
0.13 nM | N[C@@H]1c2sc(C(F)(F)F)nc2[C@H](OC(=O)N2CCC(n3c(=O)[nH]c4ncccc43)CC2)CC[C@H]1c1cccc(F)c1F [Example 9, (4R,7S,8S)-8-amino-7-(2,3-difluorophenyl)-2-(trifluoromethyl)-5,6,7,8-tetrahydro-4H-cyclohepta[d]thiazol-4-yl 4-(2-oxo-2,3-dihydro-1H-imidazo[4,5-b]pyridin-1-yl)piperidine-1-carboxylate]
910 nM | CC(C)(C)OC(=O)N[C@@H]1c2nccnc2[C@H](NC(=O)N2CCC(n3c(=O)n(COCC[Si](C)(C)C)c4ncccc43)CC2)CC[C@H]1c1cccc(F)c1F [Example 6, tert-butyl (5S,6S,9R)-6-(2,3-difluorophenyl)-9-(4-(2-oxo-3-((2-(trimethylsilyl)ethoxy)methyl)-2,3-dihydro-1H-imidazo[4,5-b]pyridin-1-yl)piperidine-1-carboxamido)-6,7,8,9-tetrahydro-5H-cyclohepta[b]pyrazin-5-ylcarbamate]
1.1 nM | N[C@@H]1c2nccnc2[C@H](NC(=O)N2CCC(n3c(=O)[nH]c4ncccc43)CC2)CC[C@H]1c1cccc(F)c1F [Example 7, N-((5R,8S,9S)-9-amino-8-(2,3-difluorophenyl)-6,7,8,9-tetrahydro-5H-cyclohepta[b]pyrazin-5-yl)-4-(2-oxo-2,3-dihydro-1H-imidazo[4,5-b]pyridin-1-yl)piperidine-1-carboxamide]
74 nM | CC(C)(C)OC(=O)N[C@@H]1c2nccnc2[C@H](NC(=O)N2CCC(n3c(OCOCC[Si](C)(C)C)nc4ncccc43)CC2)CC[C@H]1c1cccc(F)c1F [Example 5, tert-butyl (5S,6S,9R)-6-(2,3-difluorophenyl)-9-(4-(2-((2-(trimethylsilyl)ethoxy)methoxy)-1H-imidazo[4,5-b]pyridin-1-yl)piperidine-1-carboxamido)-6,7,8,9-tetrahydro-5H-cyclohepta[b]pyrazin-5-ylcarbamate]
0.095 nM | N[C@@H]1c2scnc2[C@H](OC(=O)N2CCC(n3c(=O)[nH]c4ncccc43)CC2)CC[C@H]1c1cccc(F)c1F [Example 8, (4R,7S,8S)-8-amino-7-(2,3-difluorophenyl)-5,6,7,8-tetrahydro-4H-cyclohepta[d]thiazol-4-yl 4-(2-oxo-2,3-dihydro-1H-imidazo[4,5-b]pyridin-1-yl)piperidine-1-carboxylate]
